The record followed here is US20100286024A1, “Insulinotropic compounds and uses thereof” (priority 2005, published 2010).

A short description of series [1]: Control study: chemical stability in PBS/triethanolamine without DPP-IV. The series is classed as physicochemical. As to conditions: PBS/TEthA, pH 7.5, 37°, no DPP-IV; for remaining at 22 h / remaining at 47 h: PBS/triethanolamine solution without DPP-IV, read-out: percentage of peptide remaining. On the procedure: In the control study, peptides were incubated with PBS/triethanolamine solution in the absence of DPP-IV to measure their chemical stability.

Another series concerns the target DPP-IV (Homo sapiens, UniProt P27487). Briefly: Dipeptidyl Peptidase IV (DPP-IV) digestion, stability by RP-HPLC (Example 10). Format: in vitro ADME. As to conditions: DPP-IV (isolated peptidase), PBS/TEthA, pH 7.5, 37°, DPP-IV, read-out: percentage of analogue remaining.
The next series deals with beta TC-6 cell line. The series is described as follows: Insulin release assay (insulin ELISA). Format: cell-based, mouse. Conditions: for Insulin release: 5 mM glucose, 30 minutes, Beta-TC-6 cells, cells only 1.37-3.67; for Activity of 3 μM of each peptide as percentage of insulin release by cells only / Activity of 15 μM of each peptide as percentage of insulin release by cells only: cells alone=100%. On the procedure:
This was derived from a pancreatic tumor (insulinoma) arising in a transgenic mouse.
Beta-TC-6 cells were purchased from A.T.C.C. (A.T.C.C. number CCL-11506; Manassas, Va., U.S.A.). Beta-TC-6 cells were cultured in Dulbecco's Modified Eagle's medium supplemented with 15% (v/v) heat-inactivated foetal bovine serum, 1% (v/v) glutamine, 0.45% (w/v) glucose and 0.15% (w/v) sodium bicarbonate at 37° C. in a humidified 5% CO2 atmosphere. Beta-TC-6 cells form islands and the monolayer never becomes confluent; cells were passaged at 70% confluence (7 days from seeding) at a subcultivation ratio of 1:4. The monolayer was disrupted from the surface of the culture flask with 0.25% (w/v) Trypsin-0.53 mM EDTA.
Beta-TC-6 cells were cultured in 12 well plates for between 4-8 days prior to use. Cells were cultured in Krebs-Ringer (10 mM Hepes, pH 7.4, 136 mM NaCl, 4.7 mM KCl and 1.25 mM MgSO4) supplemented with 5 mM glucose for 1 hr at 37° C. in a humidified 5% CO2 atmosphere. This medium was removed, cells washed with Krebs-Ringer. Beta-TC-6 cells were then cultured in 1 ml per well of Krebs-Ringer supplemented with 5 mM glucose and 0, 0.12, 0.6, 3 and 15 μM of peptide in duplicate for 30 minutes at 37° C. in a humidified 5% CO2 atmosphere. Medium was removed, diluted 1:5, and insulin concentration determined using an insulin ELISA kit (Mercodia, Uppsala, Sweden) according to the manufacturer's protocol. Beta-TC-6 cells were washed three times with ice-cold PBS and extracted into 0.5 ml lysis buffer (62.5 mM Tris, pH 7.5, and 1%, v/v, SDS) per well. Protein concentration was determined by Lowry assay. […] Only single-sided p values are shown.
(In general: An ELISA detects its analyte on a solid surface through an enzyme-linked reagent.)

For the next series, the target named is GLP-1 receptor (mouse) (UniProt O35659).
The next series relates to dipeptidyl peptidase IV. The series is described as follows: DPP-IV assay (Example 5), HPLC/ES-MS. Conditions: 11 milliunits DPP-IV, 50 mM triethanolamine buffer pH 7.8, 37° C., HPLC and ES-MS. The series is classed as in vitro ADME. The method, then: J. Bailey, F. P. M. O'Harte, and P. R. Flatt. […] Biological Chemistry. 385, pp 169-177.
Briefly, 100-200 microgams of each peptide was dissolved in 0.5 ml of 50 mM triethanolamine buffer, pH 7.8. To this was added a 10 microlitre solution of 11 milliunits DPP-IV (Sigma) and the solutions incubated at 37° C. for up to 42 hours. […] The incubations were terminated by addition of 5 microlitres TFA to each tube and 50 microlitre of each were injected onto a reversed phase 4.6×250 mm C18 HPLC column, eluting a gradient of 20%-45% acetonitrile in 0.1% TFA/water over 25 minutes. […] After 42 hours, the 2 analogues slowly degraded to a product that gave a mass spectrum consistent with the mass of the 9-37 sequence, indicating longer term instability of the urea bond. This represented as much as 15% of the product by HPLC. This degradation appeared to be non-DPP-IV related, since samples without enzyme gave the same profile.

Series [2] concerns the target L-His-NH-NH-CH2-C(O)-Glu9-37 (SP006) (Homo sapiens).
The target of series [3] is L-His-NH-NH-CH(CH3)-C(O)-Glu9-37 (SP008) (Homo sapiens).
The target in series [4] is L-His-L-Ala-NH-NH-CH2-C(O)-Glu9-37 (SP007) (Homo sapiens).
Series [5] deals with L-His-L-NH-CH(CH3)-CH2-NH-O-CH2-C(O)-Glu9-37 (SP005) (Homo sapiens).
For series [6], the target named is Native GLP-1 7-37 (Homo sapiens).

The term amount remaining denotes the share of the starting amount still present when the sample was taken.

No end group written: not given here. Bounds are passed on as bounds.

DPP-IV, sequence (P27487 whole entry, species assumed): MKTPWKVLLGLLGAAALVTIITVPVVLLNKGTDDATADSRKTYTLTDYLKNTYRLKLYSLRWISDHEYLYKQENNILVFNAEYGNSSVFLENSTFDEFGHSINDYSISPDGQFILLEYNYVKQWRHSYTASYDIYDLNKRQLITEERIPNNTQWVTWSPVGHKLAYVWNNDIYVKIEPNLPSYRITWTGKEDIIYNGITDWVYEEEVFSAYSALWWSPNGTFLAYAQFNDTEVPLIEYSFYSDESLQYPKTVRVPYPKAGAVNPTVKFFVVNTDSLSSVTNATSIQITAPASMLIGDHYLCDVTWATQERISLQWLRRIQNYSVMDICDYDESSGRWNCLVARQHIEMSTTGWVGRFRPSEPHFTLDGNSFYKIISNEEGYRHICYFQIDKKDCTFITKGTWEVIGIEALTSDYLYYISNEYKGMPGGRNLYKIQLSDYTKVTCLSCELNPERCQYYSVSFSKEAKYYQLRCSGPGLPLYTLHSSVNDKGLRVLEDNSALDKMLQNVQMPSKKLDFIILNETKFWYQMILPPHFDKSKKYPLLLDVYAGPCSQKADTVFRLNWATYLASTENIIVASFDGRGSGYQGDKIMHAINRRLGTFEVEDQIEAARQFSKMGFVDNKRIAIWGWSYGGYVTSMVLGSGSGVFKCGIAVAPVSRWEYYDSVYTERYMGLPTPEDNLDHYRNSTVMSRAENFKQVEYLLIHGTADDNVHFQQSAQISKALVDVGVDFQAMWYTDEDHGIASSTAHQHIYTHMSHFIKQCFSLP

As to `CC[C@H](C)[C@H](NC(=O)[C@H](Cc1ccccc1)NC(=O)[C@H](CCC(=O)O)NC(=O)[C@H](CCCCN)NC(=O)[C@H](C)NC(=O)[C@H](C)NC(=O)[C@H](CCC(N)=O)NC(=O)CNC(=O)[C@H](CCC(=O)O)NC(=O)[C@H](CC(C)C)NC(=O)[C@H](Cc1ccc(O)cc1)NC(=O)[C@H](CO)NC(=O)[C@H](CO)NC(=O)[C@@H](NC(=O)[C@H](CC(=O)O)NC(=O)[C@H](CO)NC(=O)[C@@H](NC(=O)[C@H](Cc1ccccc1)NC(=O)[C@@H](NC(=O)CNC(=O)[C@H](CCC(=O)O)NC(=O)CONC[C@H](C)NC(=O)[C@@H](N)Cc1c[nH]cn1)[C@@H](C)O)[C@@H](C)O)C(C)C)C(=O)N[C@@H](C)C(=O)N[C@@H](Cc1c[nH]c2ccccc12)C(=O)N[C@@H](CC(C)C)C(=O)N[C@H](C(=O)N[C@@H](CCCCN)C(=O)NCC(=O)N[C@@H](CCCNC(=N)N)C(=O)NCC(=O)O)C(C)C` [SP005, L-His-L-NH—CH(CH3)—CH2—NH—O—CH2—C(O)-Glu9-37], in series [1], the share remaining at 22 h was determined as 95%. For the same compound, in series [1] (47 hr), the share remaining at 47 h stood at 89%. Moreover, on DPP-IV, the fraction remaining at 22 h was determined as 95% and the fraction remaining at 47 h was determined as 93%. In addition, in the series on beta TC-6 cell line (3 μM peptide), the Insulin release turned out to be 2.25 ng/min/mg and the “Activity of 3 μM of each peptide as percentage of insulin release by cells only” value is 171 ± 53%. Also, in the series on beta TC-6 cell line (15 μM peptide), the Insulin release was found to be 5.26 ng/min/mg and the “Activity of 15 μM of each peptide as percentage of insulin release by cells only” value is listed as 358 ± 128%.

For the compound `CC[C@H](C)[C@H](NC(=O)[C@H](Cc1ccccc1)NC(=O)[C@H](CCC(=O)O)NC(=O)[C@H](CCCCN)NC(=O)[C@H](C)NC(=O)[C@H](C)NC(=O)[C@H](CCC(N)=O)NC(=O)CNC(=O)[C@H](CCC(=O)O)NC(=O)[C@H](CC(C)C)NC(=O)[C@H](Cc1ccc(O)cc1)NC(=O)[C@H](CO)NC(=O)[C@H](CO)NC(=O)[C@@H](NC(=O)[C@H](CC(=O)O)NC(=O)[C@H](CO)NC(=O)[C@@H](NC(=O)[C@H](Cc1ccccc1)NC(=O)[C@@H](NC(=O)CNC(=O)[C@H](CCC(=O)O)NC(=O)CNNC(=O)[C@@H](N)Cc1c[nH]cn1)[C@@H](C)O)[C@@H](C)O)C(C)C)C(=O)N[C@@H](C)C(=O)N[C@@H](Cc1c[nH]c2ccccc12)C(=O)N[C@@H](CC(C)C)C(=O)N[C@H](C(=O)N[C@@H](CCCCN)C(=O)NCC(=O)N[C@@H](CCCNC(=N)N)C(=O)NCC(=O)O)C(C)C` [SP006, L-His-NH-NH-CH2-C(O)-Glu9-37], the “percentage of peptide remaining” value in series [1] (47 hr) is listed as 88%. In addition, in series [1], the amount remaining at 22 h turned out to be 88%. In addition, on DPP-IV, the amount remaining at 22 h stood at 88% and the fraction remaining at 47 h worked out at 87%. Further, in the series on beta TC-6 cell line (3 μM peptide), the Insulin release is reported as 3.86 ng/min/mg and the “Activity of 3 μM of each peptide as percentage of insulin release by cells only” value came to 154 ± 25%. Further, in the series on beta TC-6 cell line (15 μM peptide), the Insulin release is given as 8.88 ng/min/mg and the “Activity of 15 μM of each peptide as percentage of insulin release by cells only” value was determined as 330 ± 89%.

As for `CC[C@H](C)[C@H](NC(=O)[C@H](Cc1ccccc1)NC(=O)[C@H](CCC(=O)O)NC(=O)[C@H](CCCCN)NC(=O)[C@H](C)NC(=O)[C@H](C)NC(=O)[C@H](CCC(N)=O)NC(=O)CNC(=O)[C@H](CCC(=O)O)NC(=O)[C@H](CC(C)C)NC(=O)[C@H](Cc1ccc(O)cc1)NC(=O)[C@H](CO)NC(=O)[C@H](CO)NC(=O)[C@@H](NC(=O)[C@H](CC(=O)O)NC(=O)[C@H](CO)NC(=O)[C@@H](NC(=O)[C@H](Cc1ccccc1)NC(=O)[C@@H](NC(=O)CNC(=O)[C@H](CCC(=O)O)NC(=O)[C@H](C)NNC(=O)[C@@H](N)Cc1c[nH]cn1)[C@@H](C)O)[C@@H](C)O)C(C)C)C(=O)N[C@@H](C)C(=O)N[C@@H](Cc1c[nH]c2ccccc12)C(=O)N[C@@H](CC(C)C)C(=O)N[C@H](C(=O)N[C@@H](CCCCN)C(=O)NCC(=O)N[C@@H](CCCNC(=N)N)C(=O)NCC(=O)O)C(C)C` [SP008, L-His-NH—NH—CH(CH3)—C(O)-Glu9-37], in series [1], the fraction remaining at 22 h was 91%. Also, the share remaining at 47 h in series [1] (47 hr) stood at 77%. Further, on DPP-IV, the fraction remaining at 22 h worked out at 95% and the share remaining at 47 h is 93%. Further, in the series on beta TC-6 cell line (3 μM peptide), the Insulin release was 4.35 ng/min/mg and the “Activity of 3 μM of each peptide as percentage of insulin release by cells only” value turned out to be 112 ± 44%. In the series on beta TC-6 cell line (15 μM peptide), the Insulin release is given as 6.20 ng/min/mg and the “Activity of 15 μM of each peptide as percentage of insulin release by cells only” value came out at 170 ± 48%.

“GLP-1 NH2-D-His-D-Ala-Urea-9-37 (SP002) (peptide)” showed an Activity of 15 µM of each peptide as percentage of insulin release by cells only (beta TC-6 cells) (% of insulin release by cells only) with GLP-1 receptor (mouse) of 254.

“GLP-1 NH2-L-His-L-Ala-urea-9-37 (SP001) (peptide)” yielded an Activity of 15 µM of each peptide as percentage of insulin release by cells only (beta TC-6 cells) (% of insulin release by cells only) with GLP-1 receptor (mouse) of 100.

As to “Glu Gly Thr Phe Thr Ser Asp Val Ser Ser Tyr Leu Glu Gly Gln Ala Ala Lys Glu Phe Ile Ala Trp Leu Val Lys Gly Arg Gly (EGTFTSDVSSYLEGQAAKEFIAWLVKGRG; listed as Homo sapiens) [Native GLP-1 9-37, reference compound]”, in the series on beta TC-6 cell line (15 μM peptide), the Insulin release is 3.25 ng/min/mg and the “Activity of 15 μM of each peptide as percentage of insulin release by cells only” value worked out at 123 ± 17%.

HAEGTFTSDVSSYLEG [GLP-1 7-22]: in the series with dipeptidyl peptidase IV, the “state of peptide after 18 hr incubation with DPP-IV” value was “completely cleaved”.

“L-His-L-Ala-NH-NH-CH2-C(O)-Glu9-37 (SP007) (peptide)” gave an Activity of 15 µM of each peptide as percentage of insulin release by cells only (beta TC-6 cells) (% of insulin release by cells only) in the series with GLP-1 receptor (mouse) of 235.

Take “L-His-L-NH-CH(CH3)-CH2-NH-O-CH2-C(O)-Glu9-37 (SP005) (peptide)”: the Activity of 15 µM of each peptide as percentage of insulin release by cells only (beta TC-6 cells) (% of insulin release by cells only) in the series with GLP-1 receptor (mouse) came out at 358.

With “L-His-NH-NH-CH2-C(O)-Glu9-37 (SP006) (peptide)”, the Activity of 15 µM of each peptide as percentage of insulin release by cells only (beta TC-6 cells) (% of insulin release by cells only) with GLP-1 receptor (mouse) is 330.

The compound “L-His-NH-NH-CH(CH3)-C(O)-Glu9-37 (SP008) (peptide)” yielded an Activity of 15 µM of each peptide as percentage of insulin release by cells only (beta TC-6 cells) (% of insulin release by cells only) in the series with GLP-1 receptor (mouse) of 170.

“dipeptidyl peptidase IV (DPP-IV) (Sigma) (enzyme)”: the results for the percentage of each analogue remaining after incubation with DPP-IV (RP-HPLC), 47 hr in series [2], in [3] and in [5] were 87 % remaining, 93 % remaining and 93 % remaining, respectively. For the same compound, the percentage of each analogue remaining after incubation with DPP-IV (RP-HPLC), 22 hr in [4] and in series [6] was < 5 % remaining throughout.
